Measurements: patent US20240245670A1, “DOSING REGIMEN AND PHARMACEUTICAL COMBINATION COMPRISING 3-(1-OXOISOINDOLIN-2-YL)PIPERIDINE-2,6-DIONE DERIVATIVES” (Novartis AG, priority 2018, published 2024)

Tests used:
[1] = ECG (QTc interval) in single dose and 4-week GLP repeat dose study; type: in vivo, monkey
Protocol: The risk of possible QTc interval prolongation at the starting dose is therefore considered low. QT prolongation may become clinically significant during escalation but are not anticipated to be dose limiting until doses at or above 640 mg. Monitoring and other measures to mitigate potential risk of arrhythmia is addressed in Example 3 below.

[2] = Toxicology studies incl. 4-week GLP studies in rats and cynomolgus monkeys; type: in vivo; details: from 4-week GLP toxicology studies in rats (30, 100, 300 mg/kg/day) and cynomolgus monkeys (3, 10, 30 mg/kg/day)
Excerpt: The non-clinical safety profile of I-57 was established in vitro, and in vivo in rats and cynomolgus monkeys in studies up to 4-weeks duration. Based on the outcome of these studies, QTc interval prolongation was identified as the principal safety signal for I-57. There were other toxicities such as diarrhea and vomiting in monkeys, and mortality, clinical signs and target organ toxicities in rats; however, these occurred at exposures far above those expected to result in clinical activity.
Preclinical safety data in 4-week GLP toxicology studies in rats (30, 100 and 300 mg/kg/day) and cynomolgus monkeys (3, 10 and 30 mg/kg/day) provide maximum recommended starting dose (MRSD) of 100 mg in humans. Based on non-clinical animal models including AdT studies, cynomolgus vaccination studies and cynomolgus PK/PD studies (See Example 1) I-57 at 20 mg is expected to result in submaximal IKZF2 degradation in PBMCs and tumor. This is considered safe and will permit PK/PD characterization and determination of the lowest dose of I-57 at which maximal detectable IKZF2 degradation is achieved.

[3] = PK after repeated daily oral dosing in immunized cynomolgus monkeys (Table 15); type: in vivo, cynomolgus monkey; details: for AUC0-24 (unbound) / AUC0-24/D (unbound) / Cmax (unbound) / Cmax/D (unbound): cynomolgus monkey
Protocol: (§1) The PK/PD relationship of I-57 was further examined in cynomolgus monkeys after repeated daily oral doses of 0.1 and 3 mg/kg. In this study, a cohort of animals were initially immunized with an antigen-adjuvant mixture (KLH/Squalene). The experiment was designed to assess the effect of I-57 exposure, and the resulting IKZF2 degradation, on immune response during immunization to test the hypothesis that IKZF2 degradation would result in increased proliferation of stimulated T-cells. In the experiment, daily I-57 oral treatment was initiated 5 days after immunization. An immunization booster dose was administered on day 15. I-57 plasma concentration and IKZF2 expression (as determined by flow cytometry) in FOXP3+ T cells from PBMCs were determined (FIG. 9A and FIG. 9B).
Exposure levels for 3 mg/kg in cynomolgus monkeys are anticipated to correspond to ˜100 mg QD in humans.

peripheral T cells = assay: Proliferation of peripheral T cells (Ki67) in KLH/Squalene immunized cynomolgus monkeys (FIG. 9B); type: in vivo, cynomolgus monkey; details: 3 mg/kg group
Protocol: FIG. 9B. is a graph showing proliferation of peripheral T cells (Mean+/−SEM, % of predose) upon treatment with 0.1 and 3 mg/kg of Compound I-57 in cynomolgus monkeys.
as §1
In order to measure the impact of I-57 treatment on the immune response following immunization, serum anti-KLH IG levels were measured longitudinally, and levels of T cell activation were measured in PBMCs by flow cytometry. […] In contrast, the proportion of proliferative peripheral T cells (denoted by Ki67 staining) was increased in the highest dose group (3 mg/kg) in the recall response phase, compared to immunization alone.

monkey IKZF2 = assay: IKZF2 degradation, species relevance (monkey)
Protocol: The starting dose of I-57 selected for this study is supported by 4-week GLP toxicology studies performed in cynomolgus monkeys. […] GLP toxicity studies identified 30 mg/kg as the HNSTD in monkey and supported a starting dose up to 100 mg QD in human (BSA scaled HED and using a safety factor of 6). The selected dose of 20 mg is anticipated to result in a significant but sub-maximal IKZF2 degradation in human PBMCs and TILs (50-90%), based on PK/PD modeling of I-57 exposure and IKZF2 degradation in cynomolgus PBMCs. More IKZF2 degradation may be required to change downstream biology. Therefore, 20 mg is considered safe. Escalation from this starting dose will facilitate the determination of the minimal required dose which provides optimal IKZF2 degradation to impact downstream biological activity.

[4] = test system: IKZF2 expression in FOXP3+ T cells from PBMCs; assay: PD after repeated daily oral dosing in immunized cynomolgus monkeys: IKZF2 by flow cytometry (FIG. 9A); type: in vivo, cynomolgus monkey
Protocol: FIG. 9A. is a graph showing the degradation of IKZF2 measured in FOXP3+ T cells upon repeated daily dosing in immunized cynomolgus monkeys treated daily with Compound I-57. Compound treatment was initiated at day 5.
as §1
Consistent with previous findings, IKZF2 degradation was detected 24 h after the first dose (at day 6) (FIG. 9A and FIG. 9B). The levels of IKZF2 decreased further upon repeat dosing and reached a steady-state level approximately 72 h after initiation of treatment. This level of degradation was maintained throughout the remainder of the treatment (24 days).

FIZ1 = molecular target: T1, FIZ1 (Homo sapiens, UniProt Q96SL8+Q96SW2); assay: Whole cell proteomic analysis in 293T cells and subsequent analyses; type: cell-based
T1 construct: endogenous in cells; host or cells: 293T
Protocol: Other potential degradation targets of I-57 were evaluated in 293T cells using whole cell proteomic analysis. […] Subsequent analyses have confirmed that FIZ1 is degraded by about 50% at a 10 μM concentration of I-57 ([I-57 Investigator's Brochure]). […] FIZ1 is expressed in the neural retina where it transcriptionally represses the differentiation of photoreceptors. FIZ1 is also expressed in non-ocular tissues with unknown function.

[5] = Day 5, Group 2 (only I-57), 0.1 mg/kg/day oral
[6] = Day 5, Group 4 (I-57 + KLH + adjuvant), 0.1 mg/kg/day oral
[7] = Day 5, Group 5 (I-57 + KLH + adjuvant), 3 mg/kg/day oral
[8] = Day 29, Group 2 (only I-57), 0.1 mg/kg/day oral
[9] = Day 29, Group 4 (I-57 + KLH + adjuvant), 0.1 mg/kg/day oral
[10] = Day 29, Group 5 (I-57 + KLH + adjuvant), 3 mg/kg/day oral

T1 sequence (Q96SL8 whole entry): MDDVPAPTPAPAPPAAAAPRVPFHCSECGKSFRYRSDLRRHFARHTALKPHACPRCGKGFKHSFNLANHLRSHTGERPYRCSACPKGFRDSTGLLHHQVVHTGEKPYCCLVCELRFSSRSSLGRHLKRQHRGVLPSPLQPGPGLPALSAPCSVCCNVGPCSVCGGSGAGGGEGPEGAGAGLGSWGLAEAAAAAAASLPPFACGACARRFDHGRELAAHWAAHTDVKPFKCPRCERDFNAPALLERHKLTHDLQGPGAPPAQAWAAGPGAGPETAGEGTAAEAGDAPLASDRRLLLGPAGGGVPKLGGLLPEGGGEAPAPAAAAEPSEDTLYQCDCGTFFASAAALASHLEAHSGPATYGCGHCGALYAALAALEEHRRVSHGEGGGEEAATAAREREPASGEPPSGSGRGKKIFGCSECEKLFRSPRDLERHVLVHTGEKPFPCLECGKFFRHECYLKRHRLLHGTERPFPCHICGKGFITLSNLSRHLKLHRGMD
T1 sequence (Q96SW2 whole entry): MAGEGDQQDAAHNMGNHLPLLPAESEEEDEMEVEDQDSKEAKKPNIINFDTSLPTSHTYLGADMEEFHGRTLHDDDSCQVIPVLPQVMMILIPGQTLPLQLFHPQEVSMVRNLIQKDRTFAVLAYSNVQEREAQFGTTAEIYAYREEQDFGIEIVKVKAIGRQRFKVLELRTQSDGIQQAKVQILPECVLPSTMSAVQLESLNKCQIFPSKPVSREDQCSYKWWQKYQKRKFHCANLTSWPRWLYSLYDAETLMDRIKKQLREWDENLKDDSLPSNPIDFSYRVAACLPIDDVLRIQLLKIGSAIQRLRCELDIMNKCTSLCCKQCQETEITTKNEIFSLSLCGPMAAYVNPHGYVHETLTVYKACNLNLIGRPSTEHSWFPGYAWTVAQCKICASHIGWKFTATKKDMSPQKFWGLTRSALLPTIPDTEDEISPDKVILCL
T1 sequence (Q16531 whole entry partner): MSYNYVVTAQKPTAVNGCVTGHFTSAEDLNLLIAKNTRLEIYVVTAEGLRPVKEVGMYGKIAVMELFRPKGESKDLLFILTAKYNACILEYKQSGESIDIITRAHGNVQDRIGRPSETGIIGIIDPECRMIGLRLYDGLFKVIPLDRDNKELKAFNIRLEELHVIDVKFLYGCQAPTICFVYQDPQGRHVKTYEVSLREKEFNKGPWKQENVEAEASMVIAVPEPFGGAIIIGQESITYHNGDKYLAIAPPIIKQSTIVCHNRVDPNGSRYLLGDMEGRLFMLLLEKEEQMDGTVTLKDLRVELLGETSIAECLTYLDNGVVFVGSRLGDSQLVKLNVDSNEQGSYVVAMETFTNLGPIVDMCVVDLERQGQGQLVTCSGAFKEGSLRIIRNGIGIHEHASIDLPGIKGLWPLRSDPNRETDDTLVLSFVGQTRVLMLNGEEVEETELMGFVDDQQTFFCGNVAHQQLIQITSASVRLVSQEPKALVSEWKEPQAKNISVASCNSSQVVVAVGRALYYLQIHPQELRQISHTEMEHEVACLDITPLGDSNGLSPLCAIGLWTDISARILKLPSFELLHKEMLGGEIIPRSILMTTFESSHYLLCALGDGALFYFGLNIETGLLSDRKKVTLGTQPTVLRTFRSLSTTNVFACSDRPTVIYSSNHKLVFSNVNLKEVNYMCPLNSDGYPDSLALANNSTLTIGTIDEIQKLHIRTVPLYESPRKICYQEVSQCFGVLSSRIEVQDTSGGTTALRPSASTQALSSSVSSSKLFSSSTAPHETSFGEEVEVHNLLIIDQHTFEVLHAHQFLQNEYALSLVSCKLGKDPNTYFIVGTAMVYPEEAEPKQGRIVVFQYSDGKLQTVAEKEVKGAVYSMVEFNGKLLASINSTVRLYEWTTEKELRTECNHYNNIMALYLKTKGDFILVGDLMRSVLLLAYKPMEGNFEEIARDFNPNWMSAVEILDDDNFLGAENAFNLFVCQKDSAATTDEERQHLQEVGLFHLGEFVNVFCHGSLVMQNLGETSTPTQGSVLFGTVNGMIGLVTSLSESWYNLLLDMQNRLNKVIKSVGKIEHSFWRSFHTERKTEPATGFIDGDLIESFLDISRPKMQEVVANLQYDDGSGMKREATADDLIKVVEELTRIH

## O=C1CCC(N2Cc3cc(C4CCN(Cc5ccccc5)CC4)ccc3C2=O)C(=O)N1 (centres unmarked) [Compound I-57, 3-(5-(1-benzylpiperidin-4-yl)-1-oxoisoindolin-2-yl)piperidine-2,6-dione]
[1]; monkeys at 3 mg/kg
  free Cmax in monkeys relative to free Cmax predicted at the clinical starting dose of 20 mg: 40 times
[1]; monkeys, 3 mg/kg
  QT effects: no QT effects
[1]; monkeys, coinciding with Tmax
  time of highest magnitude of QTc effect: 0.5 to 5.5 h
[2]
  maximum recommended starting dose (MRSD) in humans: 100 mg
[3]; [5]
  AUC0-24 (unbound): 56.8 ng·h/mL
  AUC0-24/D (unbound): 567 (ng · h/mL)/(mg/kg)
  Cmax (unbound): 7.10 ng/mL
  Cmax/D (unbound): 71.0 (ng/mL)/(mg/kg)
[3]; [6]
  AUC0-24 (unbound): 63.5 ng·h/mL
  AUC0-24/D (unbound): 634 (ng · h/mL)/(mg/kg)
  Cmax (unbound): 11.0 ng/mL
  Cmax/D (unbound): 110 (ng/mL)/(mg/kg)
[3]; [7]
  AUC0-24 (unbound): 2840 ng·h/mL
  AUC0-24/D (unbound): 946 (ng · h/mL)/(mg/kg)
  Cmax (unbound): 523 ng/mL
  Cmax/D (unbound): 175 (ng/mL)/(mg/kg)
[3]; [8]
  AUC0-24 (unbound): 78.1 ng·h/mL
  AUC0-24/D (unbound): 782 (ng · h/mL)/(mg/kg)
  Cmax (unbound): 13.1 ng/mL
  Cmax/D (unbound): 131 (ng/mL)/(mg/kg)
[3]; [9]
  AUC0-24 (unbound): 96.4 ng·h/mL
  AUC0-24/D (unbound): 965 (ng · h/mL)/(mg/kg)
  Cmax (unbound): 18.0 ng/mL
  Cmax/D (unbound): 180 (ng/mL)/(mg/kg)
[3]; [10]
  AUC0-24 (unbound): 3460 ng·h/mL
  AUC0-24/D (unbound): 1150 (ng · h/mL)/(mg/kg)
  Cmax (unbound): 504 ng/mL
  Cmax/D (unbound): 169 (ng/mL)/(mg/kg)
[3]; exposure levels for 3 mg/kg in cynomolgus monkeys
  human dose anticipated to correspond to exposure levels: ~100 mg QD
Peripheral T cells
  levels of Ki67 until the end of the study: remained elevated
Monkey IKZF2
  degradation of monkey IKZF2: can degrade monkey
[4]; after initiation of treatment, repeat daily dosing
  time to steady-state level of IKZF2: approximately 72 h
[4]; after the first dose (at day 6), daily oral 0.1 and 3 mg/kg
  time at which IKZF2 degradation was detected: 24 h
FIZ1; 10 μM concentration of I-57
  FIZ1 degradation: about 50%
FIZ1; 293T cells, nearly 8000 proteins identified
  FIZ1 degradation (proteomics): degraded
